Reference: patent publication US12227500B2, “Substituted pyrrolo[2,3-b]pyridines for suppressing toxic endoplasmic reticulum stress” (THE TRUSTEES OF COLUMBIA UNIVERSITY IN THE CITY OF NEW YORK, priority 2018, dated 2025)
Like-named read-outs stand apart in the source and are kept apart here.

Experiments:
Experiment in all cases: Radiolabeled ATP kinase assay, panel of 60 kinases (Table S5)
Assay type in all cases: biochemical
[1] = molecular target: T1, panel of 60 human kinases (Homo sapiens, UniProt Q8N4C8); conditions: MINK/MINK1; 0.1 μM; 10 μM ATP; read-out: % Enzyme Activity (relative to DSMO controls)
T1 construct: purchased Reaction Biology Corp
Procedure: (§1) To better understand the biologically relevant targets of compound 1 and its analogs, a second round of cell-free kinase assays was performed. In this expanded assay, we selected ten analogs ranging from moderately to very strongly protective in the CPA assay. These analogs were evaluated for their ability to inhibit a selection of 60 kinases at 0.1 μM and 0.5 μM. […] RNAseq data were used to confirm the expression of each kinase in ES MNs (see Example 12).
(§2) RNAseq data were used to confirm the expression of each kinase in ES motor neurons (see Example 12).

[2] = molecular target: T2, panel of 60 human kinases (Homo sapiens, UniProt P53779); conditions: JNK3; 0.1 μM; 10 μM ATP; read-out: % Enzyme Activity (relative to DSMO controls)
T2 construct: purchased Reaction Biology Corp
Procedure: as §1, §2

[3] = molecular target: T3, panel of 60 human kinases (Homo sapiens, UniProt Q00535); conditions: 0.1 μM, 10 μM ATP, read-out: % Enzyme Activity (relative to DSMO controls)
T3 construct: purchased Reaction Biology Corp
Procedure: as §1, §2

[4] = molecular target: T4, panel of 60 human kinases (Homo sapiens, UniProt Q15759); conditions: P38b/MAPK11; 0.1 μM; 10 μM ATP; read-out: % Enzyme Activity (relative to DSMO controls)
T4 construct: purchased Reaction Biology Corp
Procedure: as §1, §2

[5] = molecular target: T5, panel of 60 human kinases (Homo sapiens, UniProt P49840); conditions: GSK3a; 0.1 μM; 10 μM ATP; read-out: % Enzyme Activity (relative to DSMO controls)
T5 construct: purchased Reaction Biology Corp
Procedure: as §1, §2

[6] = molecular target: T6, panel of 60 human kinases (Homo sapiens, UniProt P21802); conditions: FGFR2; 0.1 μM; 10 μM ATP; read-out: % Enzyme Activity (relative to DSMO controls)
T6 construct: purchased Reaction Biology Corp
Procedure: as §1, §2

[7] = molecular target: T7, panel of 60 human kinases (Homo sapiens, UniProt Q13164); conditions: 0.1 μM, 10 μM ATP, read-out: % Enzyme Activity (relative to DSMO controls)
T7 construct: purchased Reaction Biology Corp
Procedure: as §1, §2

[8] = molecular target: T8, panel of 60 human kinases (Homo sapiens, UniProt P00519); conditions: ABL1; 0.1 μM; 10 μM ATP; read-out: % Enzyme Activity (relative to DSMO controls)
T8 construct: purchased Reaction Biology Corp
Procedure: as §1, §2

[9] = molecular target: T9, panel of 60 human kinases (Homo sapiens, UniProt Q07002); conditions: CDK18/cyclin Y (PCTK3); 0.1 μM; 10 μM ATP; read-out: % Enzyme Activity (relative to DSMO controls)
T9 construct: purchased Reaction Biology Corp
Procedure: as §1, §2

[10] = molecular target: T10, panel of 60 human kinases (Homo sapiens, UniProt Q00526); conditions: CDK3/cyclin E; 0.1 μM; 10 μM ATP; read-out: % Enzyme Activity (relative to DSMO controls)
T10 construct: purchased Reaction Biology Corp
Procedure: as §1, §2

[11] = molecular target: T11, panel of 60 human kinases (Homo sapiens, UniProt Q13627); conditions: DYRK/RK1A; 0.1 μM; 10 μM ATP; read-out: % Enzyme Activity (relative to DSMO controls)
T11 construct: purchased Reaction Biology Corp
Procedure: as §1, §2

[12] = molecular target: T12, panel of 60 human kinases (Homo sapiens, UniProt Q13470); conditions: TNK1; 0.1 μM; 10 μM ATP; read-out: % Enzyme Activity (relative to DSMO controls)
T12 construct: purchased Reaction Biology Corp
T12 sequence (Q13470 1-666): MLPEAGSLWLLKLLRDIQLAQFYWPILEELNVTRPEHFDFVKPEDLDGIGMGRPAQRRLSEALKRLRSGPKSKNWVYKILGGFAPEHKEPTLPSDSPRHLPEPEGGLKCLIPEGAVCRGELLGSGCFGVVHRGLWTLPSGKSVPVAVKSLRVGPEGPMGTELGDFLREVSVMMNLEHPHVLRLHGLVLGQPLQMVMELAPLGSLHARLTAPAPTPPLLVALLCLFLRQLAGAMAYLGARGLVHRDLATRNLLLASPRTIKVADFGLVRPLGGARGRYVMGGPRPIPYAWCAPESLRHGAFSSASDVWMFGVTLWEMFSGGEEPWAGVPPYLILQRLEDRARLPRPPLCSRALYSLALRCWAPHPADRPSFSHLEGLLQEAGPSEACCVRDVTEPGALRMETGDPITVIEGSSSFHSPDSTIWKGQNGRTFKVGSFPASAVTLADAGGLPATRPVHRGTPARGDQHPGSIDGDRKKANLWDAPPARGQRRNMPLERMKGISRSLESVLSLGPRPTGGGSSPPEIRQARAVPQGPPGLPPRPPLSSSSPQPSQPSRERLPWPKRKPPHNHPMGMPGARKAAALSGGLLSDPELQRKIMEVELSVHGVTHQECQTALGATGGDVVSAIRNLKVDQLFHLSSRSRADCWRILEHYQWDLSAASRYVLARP
Procedure: as §1, §2

[13] = molecular target: T13, panel of 60 human kinases (Homo sapiens, UniProt P49841); conditions: GSK3b; 0.1 μM; 10 μM ATP; read-out: % Enzyme Activity (relative to DSMO controls)
T13 construct: purchased Reaction Biology Corp
Procedure: as §1, §2

[14] = molecular target: T14, panel of 60 human kinases (Homo sapiens, UniProt Q00537); conditions: CDK17/cyclin Y (PCTK2); 0.1 μM; 10 μM ATP; read-out: % Enzyme Activity (relative to DSMO controls)
T14 construct: purchased Reaction Biology Corp
Procedure: as §1, §2

[15] = molecular target: T15, panel of 60 human kinases (Homo sapiens, UniProt O14965); conditions: Aurora A; 0.1 μM; 10 μM ATP; read-out: % Enzyme Activity (relative to DSMO controls)
T15 construct: purchased Reaction Biology Corp
T15 sequence (O14965 1-403): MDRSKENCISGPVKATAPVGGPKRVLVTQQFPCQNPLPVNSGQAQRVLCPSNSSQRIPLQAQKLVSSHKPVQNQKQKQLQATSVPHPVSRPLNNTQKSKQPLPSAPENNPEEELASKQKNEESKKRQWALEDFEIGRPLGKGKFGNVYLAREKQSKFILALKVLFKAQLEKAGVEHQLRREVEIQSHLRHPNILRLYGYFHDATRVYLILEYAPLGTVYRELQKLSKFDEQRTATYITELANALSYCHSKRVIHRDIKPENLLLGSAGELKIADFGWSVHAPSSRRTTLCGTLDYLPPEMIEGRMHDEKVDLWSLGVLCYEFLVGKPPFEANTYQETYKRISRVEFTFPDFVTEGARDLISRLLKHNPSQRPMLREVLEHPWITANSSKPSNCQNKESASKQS
Procedure: as §1, §2

T14 sequence (Q00537 whole entry): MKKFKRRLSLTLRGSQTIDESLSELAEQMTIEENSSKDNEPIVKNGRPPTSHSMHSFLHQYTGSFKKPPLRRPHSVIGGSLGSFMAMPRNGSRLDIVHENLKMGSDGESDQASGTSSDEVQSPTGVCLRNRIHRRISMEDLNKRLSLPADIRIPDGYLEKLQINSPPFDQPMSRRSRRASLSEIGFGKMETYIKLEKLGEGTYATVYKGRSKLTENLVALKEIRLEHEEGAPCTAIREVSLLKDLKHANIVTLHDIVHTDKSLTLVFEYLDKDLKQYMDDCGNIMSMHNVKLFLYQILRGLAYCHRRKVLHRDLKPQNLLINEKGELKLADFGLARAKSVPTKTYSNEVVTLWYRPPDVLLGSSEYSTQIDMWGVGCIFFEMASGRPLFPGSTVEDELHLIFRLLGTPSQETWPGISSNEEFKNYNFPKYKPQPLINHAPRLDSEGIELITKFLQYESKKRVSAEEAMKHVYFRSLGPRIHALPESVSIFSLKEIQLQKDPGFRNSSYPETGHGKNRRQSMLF
T6 sequence (P21802 22-821): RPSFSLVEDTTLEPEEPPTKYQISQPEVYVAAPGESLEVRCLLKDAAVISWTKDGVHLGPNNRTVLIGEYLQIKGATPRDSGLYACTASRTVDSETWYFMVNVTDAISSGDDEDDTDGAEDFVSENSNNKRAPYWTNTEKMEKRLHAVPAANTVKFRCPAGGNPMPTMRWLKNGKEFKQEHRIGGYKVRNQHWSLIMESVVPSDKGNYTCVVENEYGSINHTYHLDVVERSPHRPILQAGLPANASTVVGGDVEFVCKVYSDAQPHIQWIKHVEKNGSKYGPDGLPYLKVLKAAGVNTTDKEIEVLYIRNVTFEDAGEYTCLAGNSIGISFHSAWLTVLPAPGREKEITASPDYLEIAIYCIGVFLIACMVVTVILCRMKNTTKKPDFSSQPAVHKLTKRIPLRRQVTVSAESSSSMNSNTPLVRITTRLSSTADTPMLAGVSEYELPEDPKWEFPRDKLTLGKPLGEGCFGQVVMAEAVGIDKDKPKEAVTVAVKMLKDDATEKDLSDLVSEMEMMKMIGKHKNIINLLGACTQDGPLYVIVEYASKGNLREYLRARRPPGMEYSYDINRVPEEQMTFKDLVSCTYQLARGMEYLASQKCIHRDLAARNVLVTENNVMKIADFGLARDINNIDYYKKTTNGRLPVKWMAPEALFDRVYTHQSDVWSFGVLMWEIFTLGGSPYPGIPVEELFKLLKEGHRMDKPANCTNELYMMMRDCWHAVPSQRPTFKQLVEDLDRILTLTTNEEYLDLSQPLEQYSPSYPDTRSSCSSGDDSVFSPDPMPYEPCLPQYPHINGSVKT
T13 sequence (P49841 whole entry): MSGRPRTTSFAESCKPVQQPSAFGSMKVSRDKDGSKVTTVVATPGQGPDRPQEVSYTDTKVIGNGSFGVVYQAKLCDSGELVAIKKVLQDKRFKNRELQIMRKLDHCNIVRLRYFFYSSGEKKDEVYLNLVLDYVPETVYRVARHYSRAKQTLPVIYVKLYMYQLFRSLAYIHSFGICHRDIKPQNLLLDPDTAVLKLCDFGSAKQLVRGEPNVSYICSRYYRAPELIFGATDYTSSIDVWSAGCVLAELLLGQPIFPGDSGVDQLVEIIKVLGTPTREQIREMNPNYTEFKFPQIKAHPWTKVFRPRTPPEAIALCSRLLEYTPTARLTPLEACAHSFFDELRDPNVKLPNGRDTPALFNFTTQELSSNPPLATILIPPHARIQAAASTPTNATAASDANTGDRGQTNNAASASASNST
T1 sequence (Q8N4C8 whole entry): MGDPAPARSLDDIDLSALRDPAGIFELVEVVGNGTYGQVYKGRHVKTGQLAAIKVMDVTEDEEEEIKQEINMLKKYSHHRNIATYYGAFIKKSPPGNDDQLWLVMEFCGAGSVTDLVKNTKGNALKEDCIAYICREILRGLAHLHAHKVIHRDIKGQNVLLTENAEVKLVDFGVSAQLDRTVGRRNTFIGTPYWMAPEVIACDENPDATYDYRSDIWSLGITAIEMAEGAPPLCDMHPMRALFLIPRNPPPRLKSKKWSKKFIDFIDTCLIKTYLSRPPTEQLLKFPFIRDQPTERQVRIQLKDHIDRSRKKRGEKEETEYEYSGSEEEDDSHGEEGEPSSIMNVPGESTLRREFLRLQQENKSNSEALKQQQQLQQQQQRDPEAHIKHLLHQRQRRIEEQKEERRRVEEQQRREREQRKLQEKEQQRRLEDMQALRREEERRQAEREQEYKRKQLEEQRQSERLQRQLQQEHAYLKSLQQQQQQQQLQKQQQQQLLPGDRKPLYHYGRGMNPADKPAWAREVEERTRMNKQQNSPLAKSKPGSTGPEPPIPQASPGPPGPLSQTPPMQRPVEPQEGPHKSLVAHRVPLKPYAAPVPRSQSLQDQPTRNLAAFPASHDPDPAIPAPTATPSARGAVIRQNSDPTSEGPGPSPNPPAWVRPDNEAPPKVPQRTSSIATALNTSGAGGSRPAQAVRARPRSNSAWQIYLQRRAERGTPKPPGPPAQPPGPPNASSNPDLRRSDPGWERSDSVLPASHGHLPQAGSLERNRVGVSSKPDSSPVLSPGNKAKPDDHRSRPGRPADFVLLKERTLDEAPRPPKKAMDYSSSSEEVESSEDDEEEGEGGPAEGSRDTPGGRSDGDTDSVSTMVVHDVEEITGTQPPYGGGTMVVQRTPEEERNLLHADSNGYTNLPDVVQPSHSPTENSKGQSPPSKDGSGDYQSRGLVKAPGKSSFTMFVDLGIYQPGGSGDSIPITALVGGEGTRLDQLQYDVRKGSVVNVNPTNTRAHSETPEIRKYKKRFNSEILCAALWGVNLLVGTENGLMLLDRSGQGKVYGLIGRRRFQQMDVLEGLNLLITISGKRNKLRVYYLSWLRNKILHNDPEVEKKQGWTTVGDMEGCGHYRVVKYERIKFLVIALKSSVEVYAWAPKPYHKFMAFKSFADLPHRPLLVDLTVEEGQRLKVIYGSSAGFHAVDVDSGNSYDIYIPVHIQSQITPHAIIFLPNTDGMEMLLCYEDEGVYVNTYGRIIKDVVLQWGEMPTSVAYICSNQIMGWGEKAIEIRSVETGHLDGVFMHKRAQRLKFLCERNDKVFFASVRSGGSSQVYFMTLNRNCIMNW
T9 sequence (Q07002 whole entry): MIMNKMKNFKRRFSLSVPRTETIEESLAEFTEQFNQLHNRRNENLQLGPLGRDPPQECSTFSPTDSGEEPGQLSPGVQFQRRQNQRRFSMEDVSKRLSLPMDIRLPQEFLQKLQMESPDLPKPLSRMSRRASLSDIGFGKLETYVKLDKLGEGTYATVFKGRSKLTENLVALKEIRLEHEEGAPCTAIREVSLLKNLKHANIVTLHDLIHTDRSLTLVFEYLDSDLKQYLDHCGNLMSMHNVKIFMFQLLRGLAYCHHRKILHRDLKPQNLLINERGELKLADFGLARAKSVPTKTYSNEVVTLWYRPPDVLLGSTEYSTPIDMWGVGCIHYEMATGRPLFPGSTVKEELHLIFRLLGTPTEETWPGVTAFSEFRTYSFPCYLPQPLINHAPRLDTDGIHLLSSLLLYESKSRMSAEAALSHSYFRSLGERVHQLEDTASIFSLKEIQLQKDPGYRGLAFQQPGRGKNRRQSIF
T3 sequence (Q00535 whole entry): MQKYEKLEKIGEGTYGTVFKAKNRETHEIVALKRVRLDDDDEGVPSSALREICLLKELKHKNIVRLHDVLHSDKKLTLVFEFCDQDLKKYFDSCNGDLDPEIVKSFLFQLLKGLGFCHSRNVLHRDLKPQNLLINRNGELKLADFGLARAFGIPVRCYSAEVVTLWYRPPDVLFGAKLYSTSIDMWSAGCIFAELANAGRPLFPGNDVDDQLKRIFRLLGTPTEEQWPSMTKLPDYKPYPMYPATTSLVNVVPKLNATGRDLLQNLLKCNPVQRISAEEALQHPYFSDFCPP
T8 sequence (P00519 whole entry): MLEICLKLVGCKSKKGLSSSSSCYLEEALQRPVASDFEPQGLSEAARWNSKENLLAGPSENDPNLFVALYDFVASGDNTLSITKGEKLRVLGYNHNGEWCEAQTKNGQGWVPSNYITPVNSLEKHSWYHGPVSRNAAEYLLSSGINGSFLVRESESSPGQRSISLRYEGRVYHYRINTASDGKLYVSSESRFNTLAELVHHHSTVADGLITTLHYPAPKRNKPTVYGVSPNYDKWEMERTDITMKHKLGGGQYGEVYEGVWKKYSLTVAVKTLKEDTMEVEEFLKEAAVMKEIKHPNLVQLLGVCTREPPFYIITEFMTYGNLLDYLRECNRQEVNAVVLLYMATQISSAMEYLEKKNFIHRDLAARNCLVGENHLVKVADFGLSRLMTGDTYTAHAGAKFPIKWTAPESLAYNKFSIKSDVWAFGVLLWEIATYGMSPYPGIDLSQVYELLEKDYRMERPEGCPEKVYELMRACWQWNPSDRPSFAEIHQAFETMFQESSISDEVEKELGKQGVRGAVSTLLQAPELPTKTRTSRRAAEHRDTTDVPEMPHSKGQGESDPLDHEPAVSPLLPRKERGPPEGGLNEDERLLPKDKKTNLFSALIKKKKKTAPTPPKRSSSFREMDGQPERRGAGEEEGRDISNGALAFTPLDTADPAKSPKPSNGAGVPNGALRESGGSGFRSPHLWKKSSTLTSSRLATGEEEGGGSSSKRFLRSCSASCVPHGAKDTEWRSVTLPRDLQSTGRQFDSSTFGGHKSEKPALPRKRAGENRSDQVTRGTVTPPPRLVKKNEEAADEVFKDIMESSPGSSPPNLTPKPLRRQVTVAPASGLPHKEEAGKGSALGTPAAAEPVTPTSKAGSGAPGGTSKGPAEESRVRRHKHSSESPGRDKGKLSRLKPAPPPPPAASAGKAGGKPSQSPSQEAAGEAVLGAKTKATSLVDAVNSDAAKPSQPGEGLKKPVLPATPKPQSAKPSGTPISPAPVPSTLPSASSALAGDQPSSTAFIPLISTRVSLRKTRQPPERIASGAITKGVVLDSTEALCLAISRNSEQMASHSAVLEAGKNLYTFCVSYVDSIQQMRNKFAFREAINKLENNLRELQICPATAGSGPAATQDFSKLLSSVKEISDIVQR

| SMILES | remaining activity at 0.1 µM [1] [%] | remaining activity at 0.1 µM [2] [%] | remaining activity at 0.1 µM ([3]; CDK5/p25) [%] | remaining activity at 0.1 µM ([3]; CDK5/p35) [%] | remaining activity at 0.1 µM [4] [%] | remaining activity at 0.1 µM [5] [%] | remaining activity at 0.1 µM [6] [%] | remaining activity at 0.1 µM ([7]; ERK5/MAPK7 (CD)) [%] | remaining activity at 0.1 µM ([7]; ERK5/MAPK7) [%] | remaining activity at 0.1 µM [8] [%] | remaining activity at 0.1 µM [9] [%] | remaining activity at 0.1 µM [10] [%] | remaining activity at 0.1 µM [11] [%] | remaining activity at 0.1 µM [12] [%] | remaining activity at 0.1 µM [13] [%] | remaining activity at 0.1 µM [14] [%] | remaining activity at 0.1 µM [15] [%] |
| --- | --- | --- | --- | --- | --- | --- | --- | --- | --- | --- | --- | --- | --- | --- | --- | --- | --- |
| CN1CCN(Cc2ccc(-c3cnc4[nH]cc(-c5ccc6[nH]ccc6c5)c4c3)cc2)CC1 [Compound 1, 3-(1H-Indol-5-yl)-5-(4-((4-methylpiperazin-1-yl)methyl)phenyl)-1H-pyrrolo[2,3-b]pyridine, reference compound] | 5.53 | 122 | 52.8 | 52.3 | 104 | 90.8 | 52.9 | 87.5 | 109 | 46.6 | 103 | 89.1 | 41 | 28.8 | 100 | 66.1 | 81.4 |
| CN1CCN(Cc2ccc(-c3cnc4[nH]cc(-c5cccc(Cl)c5)c4c3)cc2)CC1 [Compound 7ad, 3-(3-Chlorophenyl)-5-(4-((4-methylpiperazin-1-yl)methyl)phenyl)-1H-pyrrolo[2,3-b]pyridine] | 3.06 | 106 | 84.4 | 83.9 | 103 | 97.1 | 77.6 | 93.9 | 109 | 77.3 | 112 | 95.5 | 53.4 | 53.5 | 98.1 | 70.4 | 97.3 |
| CN1CCN(Cc2ccc(-c3cnc4[nH]cc(-c5cnn(Cc6ccccc6)c5)c4c3)cc2)CC1 [Compound 7ah, 3-(1-Benzyl-1H-pyrazol-4-yl)-5-(4-((4-methylpiperazin-1-yl)methyl)phenyl)-1H-pyrrolo[2,3-b]pyridine] | 5.06 | 81.8 | 52 | 46.3 | 101 | 32.5 | 73.8 | 52.1 | 105 | 81 | 16.1 | 65.2 | 4.52 | 37.8 | 60.6 | 7.55 | 48.4 |
| Cc1nn(C)c(C)c1-c1c[nH]c2ncc(-c3ccc(CN4CCN(C)CC4)cc3)cc12 [Compound 7ai, 5-(4-((4-Methylpiperazin-1-yl)methyl)phenyl)-3-(1,3,5-trimethyl-1H-pyrazol-4-yl)-1H-pyrrolo[2,3-b]pyridine] | 7.8 | 107 | 93.2 | 87.9 | 104 | 84.7 | 80.9 | 86 | 101 | 26.3 | 100 | 96 | 41.7 | 63.6 | 94 | 69.4 | 95.5 |
| CN1CCN(Cc2ccc(-c3cnc4[nH]cc(-c5ccccc5Cl)c4c3)cc2)CC1 [Compound 7as, 3-(2-Chlorophenyl)-5-(4-((4-methylpiperazin-1-yl)methyl)phenyl)-1H-pyrrolo[2,3-b]pyridine] | 0.19 | 111 | 48.6 | 36 | 99.5 | 96 | 41.1 | 51.2 | 107 | 5.92 | 95.5 | 85.5 | 42 | 33.9 | 98.9 | 44.1 | 81.1 |
| COc1ccccc1-c1c[nH]c2ncc(-c3ccc(CN4CCN(C)CC4)cc3)cc12 [Compound 7at, 3-(2-Methoxyphenyl)-5-(4-((4-methylpiperazin-1-yl)methyl)phenyl)-1H-pyrrolo[2,3-b]pyridine] | 9.84 | 104 | 43.1 | 31.9 | 97.7 | 82.8 | 83.4 | 92.7 | 108 | 19 | 97.1 | 72.7 | 57.4 | 38.4 | 97.3 | 69.7 | 90.2 |
